Measured values: article PMC7421780 (Future Medicinal Chemistry, 2020)
In brackets after ≈: the same amount, converted by molar mass. Where two headings read alike, the source gives them in different places.

Tests used:
[1] = system: Mtb H37Rv; assay: Primary screen: MIC, IC50 and IC90 under aerobic conditions; format: cell-based; conditions: Mycobacterium tuberculosis
[2] = physchem; conditions: aqueous with cosolvent or surfactant or cyclodextrin, kinetic from dmso stock
[3] = in vitro; conditions: human
[4] = system: NRP Mtb H37Rv; assay: microbe, parasite or virus in culture; format: cell-based; conditions: Mycobacterium tuberculosis
[5] = system: Mtb H37Rv; assay: Secondary assay: MIC, IC50 and IC90 repeated at lower starting concentrations; format: cell-based; conditions: Mycobacterium tuberculosis; for MIC: read-out: MIC aerobic condition
[6] = system: intracellular Mtb H37Rv; assay: microbe, parasite or virus in culture; format: cell-based; conditions: Mycobacterium tuberculosis; for IC50: THP-1, read-out: IC50 intracell; for IC90: THP-1, read-out: IC90 intracell
[7] = system: Mycobacterium abscessus; assay: MIC, IC50, IC90 against nontuberculous mycobacteria; format: cell-based; conditions: for IC50 / IC90 / MIC: Mycobacteroides abscessus
[8] = system: Mycobacterium avium; assay: MIC against nontuberculous mycobacteria, Alamar blue; format: cell-based; conditions: Mycobacterium avium
[9] = system: Mtb H37Rv; assay: Minimal bactericidal concentration; format: cell-based, Mycobacterium tuberculosis; conditions: Mtb H37Rv aerobic
[10] = In vitro microsomal stability assay; conditions: Human, 1 μM
[11] = in vitro; conditions: human; remark: listed apart in the source
[12] = Caco-2 cell monolayer permeability assay; conditions: human
[13] = Human plasma, equilibrium dialysis
[14] = HepG2 cytotoxicity; format: cell-based; conditions: human, HepG2 cells

Structure (SMILES): c1cc(Cn2ccnc2)nc(Cn2ccnc2)c1 [Compound 2a, 2,6-bis((1H-imidazol-1-yl)methyl)pyridine]
- IC50 [1]: > 200 µM
- IC90 [1]: > 200 µM
- MIC [1]: > 200 µM
- solubility [2]: > 200 µM

Structure (SMILES): O=[N+]([O-])c1cn(Cc2cccc(Cn3cnc([N+](=O)[O-])c3)n2)cn1 [Compound 2b, 2,6-bis((4-nitro-1H-imidazol-1-yl)methyl)pyridine]
- IC50 [3]: > 50 µM
- IC50 ([4]; Low oxygen): 26 µM
- IC90 ([4]; Low oxygen): 91 µM
- MIC ([4]; Low oxygen): 200 µM (≈ 65.9 µg/mL)
- IC50 ([4]; Normal oxygen): > 200 µM
- IC90 ([4]; Normal oxygen): > 200 µM
- MIC ([4]; Normal oxygen): > 200 µM
- IC50 [1]: 77 µM
- IC90 [1]: 100 µM
- MIC [1]: 92 µM (≈ 30.3 µg/mL)
- IC50 [5]: 93 µM
- IC90 [5]: 100 µM
- MIC [5]: 101 µM (≈ 33.3 µg/mL)
- IC50 [6]: > 200 µM
- IC90 [6]: > 200 µM

Structure (SMILES): COC(=O)C[n+]1ccn(Cc2cccc(Cn3cc[n+](CC(=O)OC)c3)n2)c1 [Compound 4a, 1,1′-(pyridine-2,6-diylbis(methylene))bis(3-(2-methoxy-2-oxoethyl)-1H-imidazol-3-ium) bromide]
- IC50 [1]: > 200 µM
- IC90 [1]: > 200 µM
- MIC [1]: > 200 µM

Structure (SMILES): NC(=O)C[n+]1ccn(Cc2cccc(Cn3cc[n+](CC(N)=O)c3)n2)c1 [Compound 4b, 1,1′-(pyridine-2,6-diylbis(methylene))bis(3-(2-amino-2-oxoethyl)-1H-imidazol-3-ium) iodide]
- IC50 [1]: > 200 µM
- IC90 [1]: > 200 µM
- MIC [1]: > 200 µM

Structure (SMILES): O=C(C[n+]1ccn(Cc2cccc(Cn3cc[n+](CC(=O)c4ccccc4)c3)n2)c1)c1ccccc1 [Compound 4c, 1,1′-(pyridine-2,6-diylbis(methylene))bis(3-(2-oxo-2-phenylethyl)-1H-imidazol-3-ium) bromide]
- IC50 [1]: > 200 µM
- IC90 [1]: > 200 µM
- MIC [1]: > 200 µM

Structure (SMILES): O=C(C[n+]1ccn(Cc2cccc(Cn3cc[n+](CC(=O)c4ccc(Cl)cc4)c3)n2)c1)c1ccc(Cl)cc1 [Compound 4e, 1,1′-(pyridine-2,6-diylbis(methylene))bis(3-(2-(4-chlorophenyl)-2-oxoethyl)-1H-imidazol-3-ium) bromide]
- IC50 [1]: 34 µM
- IC90 [1]: 63 µM
- MIC [1]: 51 µM

Structure (SMILES): O=C(C[n+]1ccn(Cc2cccc(Cn3cc[n+](CC(=O)c4ccc([N+](=O)[O-])cc4)c3)n2)c1)c1ccc([N+](=O)[O-])cc1.[Br-].[Br-] [Compound 4f, 1,1′-(pyridine-2,6-diylbis(methylene))bis(3-(2-(4-nitrophenyl)-2-oxoethyl)-1H-imidazol-3-ium) bromide]
- activity against M. abscessus (in words) [7]: showed activity
- IC50 [7]: 89 µM
- IC90 [7]: 97 µM
- MIC [7]: 110 µM
- MIC [8]: > 200 µM
- mechanism of action (bacteriostatic or bactericidal) [9]: bactericidal
- IC50 [3]: > 50 µM
- IC50 ([4]; Low oxygen): 25 µM
- IC90 ([4]; Low oxygen): 65 µM
- MIC ([4]; Low oxygen): 183 µM
- IC50 ([4]; Normal oxygen): 49 µM
- IC90 ([4]; Normal oxygen): 78 µM
- MIC ([4]; Normal oxygen): 129 µM
- IC50 [1]: 38 µM
- IC90 [1]: 71 µM
- MIC [1]: 58 µM
- IC50 [5]: 45 µM
- IC90 [5]: 140 µM
- MIC [5]: 104 µM
- IC50 [6]: 26 µM
- IC90 [6]: 48 µM

Structure (SMILES): COc1ccc(C(=O)C[n+]2ccn(Cc3cccc(Cn4cc[n+](CC(=O)c5ccc(OC)cc5)c4)n3)c2)cc1 [Compound 4g, 1,1′-(pyridine-2,6-diylbis(methylene))bis(3-(2-(4-methoxyphenyl)-2-oxoethyl)-1H-imidazol-3-ium) bromide]
- IC50 [1]: 160 µM
- IC90 [1]: > 200 µM
- MIC [1]: > 200 µM

Structure (SMILES): c1cc(Cn2cnc3ccccc32)nc(Cn2cnc3ccccc32)c1 [Compound 5, 2,6-bis((1H-benzo[d]imidazol-1-yl)methyl)pyridine]
- IC50 [3]: > 50 µM
- IC50 ([4]; Low oxygen): > 50 µM
- IC90 ([4]; Low oxygen): > 50 µM
- MIC ([4]; Low oxygen): > 50 µM
- IC50 ([4]; Normal oxygen): > 50 µM
- IC90 ([4]; Normal oxygen): > 50 µM
- MIC ([4]; Normal oxygen): > 50 µM
- IC50 [1]: 43 µM
- IC90 [1]: > 50 µM
- MIC [1]: > 50 µM
- IC50 [5]: > 50 µM
- IC90 [5]: > 50 µM
- MIC [5]: > 50 µM
- IC50 [6]: > 200 µM
- IC90 [6]: > 200 µM
- solubility [2]: > 200 µM

Structure (SMILES): COC(=O)C[n+]1cn(Cc2cccc(Cn3c[n+](CC(=O)OC)c4ccccc43)n2)c2ccccc21 [Compound 6a, 1,1′-(pyridine-2,6-diylbis(methylene))bis(3-(2-methoxy-2-oxoethyl)-1H-benzo[d]imidazol-3-ium) bromide]
- IC50 [1]: > 200 µM
- IC90 [1]: > 200 µM
- MIC [1]: > 200 µM

Structure (SMILES): NC(=O)C[n+]1cn(Cc2cccc(Cn3c[n+](CC(N)=O)c4ccccc43)n2)c2ccccc21 [Compound 6b, 1,1′-(pyridine-2,6-diylbis(methylene))bis(3-(2-amino-2-oxoethyl)-1H-benzo[d]imidazol-3-ium) iodide]
- IC50 [1]: 180 µM
- IC90 [1]: > 200 µM
- MIC [1]: > 200 µM

Structure (SMILES): O=C(C[n+]1cn(Cc2cccc(Cn3c[n+](CC(=O)c4ccccc4)c4ccccc43)n2)c2ccccc21)c1ccccc1.[Br-].[Br-] [Compound 6c, 1,1′-(pyridine-2,6-diylbis(methylene))bis(3-(2-oxo-2-phenylethyl)-1H-benzo[d]imidazol-3-ium) bromide]
- activity against M. abscessus (in words) [7]: showed activity
- IC50 [7]: 120 µM
- IC90 [7]: 200 µM
- MIC [7]: > 200 µM
- MIC [8]: > 200 µM
- mechanism of action (bacteriostatic or bactericidal) [9]: bactericidal
- IC50 [3]: > 50 µM
- IC50 ([4]; Low oxygen): 16 µM
- IC90 ([4]; Low oxygen): 130 µM
- MIC ([4]; Low oxygen): 200 µM
- IC50 ([4]; Normal oxygen): 17 µM
- IC90 ([4]; Normal oxygen): 60 µM
- MIC ([4]; Normal oxygen): > 200 µM
- IC50 [1]: 25 µM
- IC90 [1]: 60 µM
- MIC [1]: 56 µM
- IC50 [5]: 34 µM
- IC90 [5]: 110 µM
- MIC [5]: 87 µM
- IC50 [6]: 37 µM
- IC90 [6]: > 50 µM

Structure (SMILES): O=C(C[n+]1cn(Cc2cccc(Cn3c[n+](CC(=O)c4ccc(Cl)cc4)c4ccccc43)n2)c2ccccc21)c1ccc(Cl)cc1 [Compound 6e, 1,1′-(pyridine-2,6-diylbis(methylene))bis(3-(2-(4-chlorophenyl)-2-oxoethyl)-1H-benzo[d]imidazol-3-ium) bromide]
- IC50 [1]: 7.9 µM
- IC90 [1]: 18 µM
- MIC [1]: 17 µM

Structure (SMILES): COc1ccc(C(=O)C[n+]2cn(Cc3cccc(Cn4c[n+](CC(=O)c5ccc(OC)cc5)c5ccccc54)n3)c3ccccc32)cc1 [Compound 6g, 1,1′-(pyridine-2,6-diylbis(methylene))bis(3-(2-(4-methoxyphenyl)-2-oxoethyl)-1H-benzo[d]imidazol-3-ium) bromide]
- MIC [1]: 58 µM

Structure (SMILES): COc1ccc2c(c1)[C@]13CCCC[C@@H]1[C@H](C2)N(C)CC3 [Dextromethorphan, reference compound]
- NADPH-free CLint [10]: <12.8 µL/min/mg
- NADPH-free T1/2 [10]: >3 h

Structure (SMILES): NNC(=O)c1ccncc1 [Isoniazid, reference compound]
- IC50 [6]: 0.23 µM
- IC90 [6]: 0.29 µM

Structure (SMILES): Cc1ncc([N+](=O)[O-])n1CCO [Metronidazole, reference compound]
- IC50 ([4]; Low oxygen): 29 µM
- IC90 ([4]; Low oxygen): 110 µM
- MIC ([4]; Low oxygen): 200 µM (≈ 34.2 µg/mL)
- IC50 ([4]; Normal oxygen): > 200 µM
- IC90 ([4]; Normal oxygen): > 200 µM
- MIC ([4]; Normal oxygen): > 200 µM

Structure (SMILES): CC(C)NCC(O)COc1cccc2ccccc12 (centres unmarked) [Propranolol, reference compound]
- recovery [11]: 93%
- fraction unbound ([11]; plasma): 0.207
- Papp B→A ([12]; Caco-2): 25 ×10⁻⁶ cm/s
- Papp A→B ([12]; Caco-2, Mean A→B Papp, Caco-2, apical to basal): 12.7 ×10⁻⁶ cm/s
- Mean plasma fraction bound [13]: 79.3%

Structure (SMILES): CO[C@H]1/C=C/O[C@@]2(C)Oc3c(C)c(O)c4c(O)c(c(/C=N/N5CCN(C)CC5)c(O)c4c3C2=O)NC(=O)/C(C)=C\C=C\[C@H](C)[C@H](O)[C@@H](C)[C@@H](O)[C@@H](C)[C@H](OC(C)=O)[C@@H]1C [Rifampicin, reference compound]
- IC50 [7]: 2.1 µM
- IC90 [7]: 3.1 µM
- MIC [7]: 3.3 µM (≈ 2.72 µg/mL)
- MIC [8]: > 200 µM
- IC50 ([4]; Low oxygen): 0.0041 µM
- IC90 ([4]; Low oxygen): 0.0065 µM
- MIC ([4]; Low oxygen): 0.13 µM (≈ 0.107 µg/mL)
- MIC ([4]; Normal oxygen): 0.096 µM (≈ 0.079 µg/mL)
- IC50 [5]: 0.004 µM
- IC90 [5]: 0.0077 µM
- MIC [5]: 0.0063 µM (≈ 0.00518 µg/mL)

Structure (SMILES): CN[C@@H]1C[C@H]2O[C@@](C)([C@@H]1OC)n1c3ccccc3c3c4c(c5c6ccccc6n2c5c31)C(=O)NC4 [Staurosporine, reference compound]
- IC50 [3]: 0.018 µM
- IC50 at 72 h [14]: 0.0086 µM

Structure (SMILES): CC(=O)CC(c1ccccc1)c1c(O)c2ccccc2oc1=O (centres unmarked) [Warfarin]
- recovery [13]: 96.7
